From ChEMBL document CHEMBL3885881, “DrugMatrix”

Species: Rattus norvegicus
Experiment: DrugMatrix - Regimen: Daily Repeat
Assay type: toxicity, organism-based, Sprague-Dawley
Design: regimen Daily Repeat, gender Male, age 6-8 weeks
Conditions: in vivo, po, route oral GAVAGE, vehicle .5 % CMC; for ABSOLUTE BASOPHIL / ABSOLUTE EOSINOPHIL / ABSOLUTE LYMPHOCYTE / ABSOLUTE MONOCYTE / ABSOLUTE SEGMENTED NEUTROPHIL / BASOPHIL / EOSINOPHIL / ERYTHROCYTE COUNT / HEMATOCRIT / HEMOGLOBIN / LEUKOCYTE COUNT / LYMPHOCYTE / MEAN CORPUSCULAR HEMOGLOBIN / MEAN CORPUSCULAR HEMOGLOBIN CONCENTRATION / MEAN CORPUSCULAR VOLUME / MONOCYTE / NEUTROPHIL / NUCLEATED RED BLOOD CELLS / PLATELET COUNT: tissue Blood; for ALANINE AMINOTRANSFERASE / ALBUMIN / ALKALINE PHOSPHATASE / ASPARTATE AMINOTRANSFERASE / BLOOD UREA NITROGEN / CARBON DIOXIDE / CHLORIDE / CHOLESTEROL / CREATINE PHOSPHOKINASE / CREATININE / GLUCOSE / LACTATE DEHYDROGENASE / LIPASE / PHOSPHORUS / POTASSIUM / SODIUM / TOTAL BILIRUBIN / TOTAL PROTEIN / URIC ACID: tissue Plasma
[1] = 1 mg/kg, 120 h, dose level Low, time 5 day
[2] = 1300 mg/kg, 72 h, dose level High, time 3 day
[3] = 1300 mg/kg, 120 h, dose level High, time 5 day

CCOc1nc2cccc(C(=O)O)c2n1Cc1ccc(-c2ccccc2-c2nnn[nH]2)cc1
ABSOLUTE BASOPHIL [1]: 0 CELLS/uL
ABSOLUTE EOSINOPHIL [1]: 0 CELLS/uL
ABSOLUTE LYMPHOCYTE [1]: 10713.33 CELLS/uL
ABSOLUTE MONOCYTE [1]: 81.33 CELLS/uL
ABSOLUTE SEGMENTED NEUTROPHIL [1]: 1172 CELLS/uL
BASOPHIL [1]: 0%
EOSINOPHIL [1]: 0%
ERYTHROCYTE COUNT [1]: 5.35 x10E6/uL
HEMATOCRIT [1]: 34.57%
HEMOGLOBIN [1]: 13.63 G/DL
LEUKOCYTE COUNT [1]: 11.97 x10E3/uL
LYMPHOCYTE [1]: 89.67%
MEAN CORPUSCULAR HEMOGLOBIN [1]: 25.5 pg
MEAN CORPUSCULAR HEMOGLOBIN CONCENTRATION [1]: 39.43 G/DL
MEAN CORPUSCULAR VOLUME [1]: 64.67 fL
MONOCYTE [1]: 0.67%
NEUTROPHIL [1]: 9.67%
NUCLEATED RED BLOOD CELLS [1]: 0 /100WBC
PLATELET COUNT [1]: 1267.33 x10E3/uL
ALANINE AMINOTRANSFERASE [1]: 54 u/L
ALBUMIN [1]: 4.1 G/DL
ALKALINE PHOSPHATASE [1]: 389.33 u/L
ASPARTATE AMINOTRANSFERASE [1]: 76.67 u/L
BLOOD UREA NITROGEN [1]: 18.33 mg/dL
CARBON DIOXIDE [1]: 27 mmol/L
CHLORIDE [1]: 104.33 MEQ/L
CHOLESTEROL [1]: 70.33 mg/dL
CREATINE PHOSPHOKINASE [1]: 187.67 u/L
CREATININE [1]: 0.19 mg/dL
GLUCOSE [1]: 161.33 mg/dL
LACTATE DEHYDROGENASE [1]: 120.67 u/L
LIPASE [1]: 10.67 u/L
PHOSPHORUS [1]: 12.2 mg/dL
POTASSIUM [1]: 5.83 MEQ/L
SODIUM [1]: 144.5 MEQ/L
TOTAL BILIRUBIN [1]: 0.2 mg/dL
TOTAL PROTEIN [1]: 5.97 G/DL
URIC ACID [1]: 1.6 mg/dL
ABSOLUTE BASOPHIL [2]: 0 CELLS/uL
ABSOLUTE EOSINOPHIL [2]: 27.67 CELLS/uL
ABSOLUTE LYMPHOCYTE [2]: 7595.67 CELLS/uL
ABSOLUTE MONOCYTE [2]: 24.33 CELLS/uL
ABSOLUTE SEGMENTED NEUTROPHIL [2]: 519 CELLS/uL
BASOPHIL [2]: 0%
EOSINOPHIL [2]: 0.33%
ERYTHROCYTE COUNT [2]: 5.08 x10E6/uL
HEMATOCRIT [2]: 32.2%
HEMOGLOBIN [2]: 13.13 G/DL
LEUKOCYTE COUNT [2]: 8.17 x10E3/uL
LYMPHOCYTE [2]: 93%
MEAN CORPUSCULAR HEMOGLOBIN [2]: 25.87 pg
MEAN CORPUSCULAR HEMOGLOBIN CONCENTRATION [2]: 40.8 G/DL
MEAN CORPUSCULAR VOLUME [2]: 63.43 fL
MONOCYTE [2]: 0.33%
NEUTROPHIL [2]: 6.33%
NUCLEATED RED BLOOD CELLS [2]: 0 /100WBC
PLATELET COUNT [2]: 1033.67 x10E3/uL
ALANINE AMINOTRANSFERASE [2]: 54 u/L
ALBUMIN [2]: 4.33 G/DL
ALKALINE PHOSPHATASE [2]: 351.67 u/L
ASPARTATE AMINOTRANSFERASE [2]: 93 u/L
BLOOD UREA NITROGEN [2]: 27.33 mg/dL
CARBON DIOXIDE [2]: 32 mmol/L
CHLORIDE [2]: 102 MEQ/L
CHOLESTEROL [2]: 73 mg/dL
CREATINE PHOSPHOKINASE [2]: 813.67 u/L
CREATININE [2]: 0.48 mg/dL
GLUCOSE [2]: 143 mg/dL
LACTATE DEHYDROGENASE [2]: 189.33 u/L
LIPASE [2]: 10.33 u/L
PHOSPHORUS [2]: 12.17 mg/dL
POTASSIUM [2]: 7.02 MEQ/L
SODIUM [2]: 143.6 MEQ/L
TOTAL BILIRUBIN [2]: 0.23 mg/dL
TOTAL PROTEIN [2]: 5.93 G/DL
URIC ACID [2]: 0.93 mg/dL
ABSOLUTE BASOPHIL [3]: 0 CELLS/uL
ABSOLUTE EOSINOPHIL [3]: 140.67 CELLS/uL
ABSOLUTE LYMPHOCYTE [3]: 14776.67 CELLS/uL
ABSOLUTE MONOCYTE [3]: 166.33 CELLS/uL
ABSOLUTE SEGMENTED NEUTROPHIL [3]: 1516.33 CELLS/uL
BASOPHIL [3]: 0%
EOSINOPHIL [3]: 0.67%
ERYTHROCYTE COUNT [3]: 5.54 x10E6/uL
HEMATOCRIT [3]: 34.57%
HEMOGLOBIN [3]: 13.97 G/DL
LEUKOCYTE COUNT [3]: 16.6 x10E3/uL
LYMPHOCYTE [3]: 89.33%
MEAN CORPUSCULAR HEMOGLOBIN [3]: 25.23 pg
MEAN CORPUSCULAR HEMOGLOBIN CONCENTRATION [3]: 40.43 G/DL
MEAN CORPUSCULAR VOLUME [3]: 62.43 fL
MONOCYTE [3]: 1%
NEUTROPHIL [3]: 9%
NUCLEATED RED BLOOD CELLS [3]: 0 /100WBC
PLATELET COUNT [3]: 1315 x10E3/uL
ALANINE AMINOTRANSFERASE [3]: 42.33 u/L
ALBUMIN [3]: 4.33 G/DL
ALKALINE PHOSPHATASE [3]: 320.67 u/L
ASPARTATE AMINOTRANSFERASE [3]: 108 u/L
BLOOD UREA NITROGEN [3]: 32.33 mg/dL
CARBON DIOXIDE [3]: 24.67 mmol/L
CHLORIDE [3]: 105 MEQ/L
CHOLESTEROL [3]: 61.67 mg/dL
CREATINE PHOSPHOKINASE [3]: 994.33 u/L
CREATININE [3]: 0.19 mg/dL
GLUCOSE [3]: 134 mg/dL
LACTATE DEHYDROGENASE [3]: 1053.67 u/L
LIPASE [3]: 10 u/L
PHOSPHORUS [3]: 11.2 mg/dL
POTASSIUM [3]: 6.2 MEQ/L
SODIUM [3]: 143.9 MEQ/L
TOTAL BILIRUBIN [3]: 0.2 mg/dL
TOTAL PROTEIN [3]: 6.2 G/DL
URIC ACID [3]: 1.13 mg/dL
